The assay concerns Spinacia oleracea PM H^+-ATPase preincubated with FC/14-3-3 or TeA/14-3-3. The assay is classed as biochemical.

As to `C=CC(C)(C)OC[C@H]1O[C@H](O[C@@H]2C3=C([C@H](C)COC(C)=O)C[C@H](O)[C@]3(C)/C=C3/[C@@H](COC)CC[C@H]3[C@@H](C)[C@H]2O)[C@H](O)[C@@H](OC(C)=O)[C@@H]1O` [FC, Fusicoccin], the “effect on PM H^+-ATPase activity” value is reported as “activate” and the specific activity is reported as 44.1 Pi mg^−1 protein min^−1.

(Values after article PMC7187312 (The New Phytologist, 2020).)
